Test results: ChEMBL document CHEMBL5291721, “A preclinical secondary pharmacology resource illuminates target-adverse drug reaction associations of marketed drugs” (Nat Commun, 2023)

How the values were obtained:
[1] = target: T1, Muscarinic acetylcholine receptor M2 (Homo sapiens, UniProt P08172); format: functional, cell-based
T1 sequence (P08172 whole entry): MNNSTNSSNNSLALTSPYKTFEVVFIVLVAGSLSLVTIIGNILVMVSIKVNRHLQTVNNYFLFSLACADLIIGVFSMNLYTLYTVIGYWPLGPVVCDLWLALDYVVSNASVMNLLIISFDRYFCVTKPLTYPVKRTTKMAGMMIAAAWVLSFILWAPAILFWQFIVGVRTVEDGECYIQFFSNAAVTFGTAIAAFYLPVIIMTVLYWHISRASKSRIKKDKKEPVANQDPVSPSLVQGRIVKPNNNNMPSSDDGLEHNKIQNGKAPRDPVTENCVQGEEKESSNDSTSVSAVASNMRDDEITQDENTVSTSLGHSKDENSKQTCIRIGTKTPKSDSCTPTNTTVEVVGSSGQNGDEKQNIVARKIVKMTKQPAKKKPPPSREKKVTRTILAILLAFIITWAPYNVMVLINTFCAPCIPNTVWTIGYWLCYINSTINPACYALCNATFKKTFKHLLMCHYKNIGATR

Adenosine receptor A1 = target: T2, Adenosine receptor A1 (Homo sapiens, UniProt P30542)
T2 sequence (P30542 whole entry): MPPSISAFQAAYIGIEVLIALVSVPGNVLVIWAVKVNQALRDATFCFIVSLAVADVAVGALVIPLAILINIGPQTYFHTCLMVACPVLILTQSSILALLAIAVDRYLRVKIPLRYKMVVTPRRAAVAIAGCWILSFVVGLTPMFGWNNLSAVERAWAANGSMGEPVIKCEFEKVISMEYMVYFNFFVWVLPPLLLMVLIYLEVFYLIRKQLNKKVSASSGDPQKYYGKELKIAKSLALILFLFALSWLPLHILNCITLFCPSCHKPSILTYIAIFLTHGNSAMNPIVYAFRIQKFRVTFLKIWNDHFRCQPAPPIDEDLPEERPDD

[2] = target: T3, 5-hydroxytryptamine receptor 2B (Homo sapiens, UniProt P41595); format: functional, cell-based
[3] = target: Gamma-aminobutyric acid receptor subunit alpha-1 (Rattus norvegicus, UniProt P62813)
[4] = target: T4, Alpha-2C adrenergic receptor (Homo sapiens, UniProt P18825); format: functional
T4 sequence (P18825 whole entry): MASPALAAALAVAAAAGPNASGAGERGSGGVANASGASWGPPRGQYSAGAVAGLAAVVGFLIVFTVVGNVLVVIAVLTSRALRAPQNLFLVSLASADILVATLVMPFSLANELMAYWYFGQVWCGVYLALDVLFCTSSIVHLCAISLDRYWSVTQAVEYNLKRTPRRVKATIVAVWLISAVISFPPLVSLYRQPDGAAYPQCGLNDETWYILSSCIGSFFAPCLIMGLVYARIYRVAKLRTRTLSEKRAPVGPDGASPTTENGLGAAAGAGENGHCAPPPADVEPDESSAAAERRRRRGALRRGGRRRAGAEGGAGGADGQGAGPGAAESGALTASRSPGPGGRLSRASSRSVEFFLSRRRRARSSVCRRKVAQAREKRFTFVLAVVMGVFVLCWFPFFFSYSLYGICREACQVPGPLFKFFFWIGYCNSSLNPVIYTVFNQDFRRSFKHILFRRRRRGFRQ

[5] = target: Delta-type opioid receptor (Homo sapiens, UniProt P41143)
[6] = target: T3, 5-hydroxytryptamine receptor 2B; format: functional, cell-based; remark: listed apart in the source
[7] = target: Glutamate receptor ionotropic, NMDA 1 (Rattus norvegicus, UniProt P35439)
[8] = target: 3',5'-cyclic-AMP phosphodiesterase 4D (Homo sapiens, UniProt Q08499); format: functional
[9] = target: T1, Muscarinic acetylcholine receptor M2; format: functional, cell-based; remark: listed apart in the source
Cannabinoid receptor 1 = Cannabinoid receptor 1 (Homo sapiens, UniProt P21554); format: functional, cell-based
[10] = target: T5, Neuropeptide Y receptor type 1 (Homo sapiens, UniProt P25929)
T5 sequence (P25929 whole entry): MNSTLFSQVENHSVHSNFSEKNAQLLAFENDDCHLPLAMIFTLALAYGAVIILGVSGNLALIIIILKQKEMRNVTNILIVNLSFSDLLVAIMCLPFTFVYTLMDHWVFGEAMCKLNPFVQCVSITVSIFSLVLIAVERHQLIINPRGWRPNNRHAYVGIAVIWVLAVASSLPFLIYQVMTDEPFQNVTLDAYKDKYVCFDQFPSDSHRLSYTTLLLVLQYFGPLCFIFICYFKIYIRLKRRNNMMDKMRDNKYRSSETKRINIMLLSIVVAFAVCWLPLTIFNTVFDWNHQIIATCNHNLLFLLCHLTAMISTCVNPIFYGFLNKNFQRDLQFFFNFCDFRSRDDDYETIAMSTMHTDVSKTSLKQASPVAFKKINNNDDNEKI

[11] = target: Sodium-dependent noradrenaline transporter (Homo sapiens, UniProt P23975)
[12] = target: Sodium-dependent dopamine transporter (Homo sapiens, UniProt Q01959)
Adenosine receptor A2a = Adenosine receptor A2a (Homo sapiens, UniProt P29274)
Melanocortin receptor 3 = Melanocortin receptor 3 (Homo sapiens, UniProt P41968)
Adenosine receptor A3 = target: T6, Adenosine receptor A3 (Homo sapiens, UniProt P0DMS8)
T6 sequence (P0DMS8 whole entry): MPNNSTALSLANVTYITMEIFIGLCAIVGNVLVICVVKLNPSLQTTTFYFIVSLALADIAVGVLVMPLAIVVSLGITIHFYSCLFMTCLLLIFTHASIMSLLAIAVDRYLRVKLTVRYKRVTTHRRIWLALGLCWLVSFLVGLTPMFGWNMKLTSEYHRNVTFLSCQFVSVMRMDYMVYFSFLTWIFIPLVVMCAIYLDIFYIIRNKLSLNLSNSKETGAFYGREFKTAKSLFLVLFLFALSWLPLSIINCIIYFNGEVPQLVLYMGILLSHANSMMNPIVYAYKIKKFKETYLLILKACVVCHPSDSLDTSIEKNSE
Further: assay procedure not described here.

Chain of Delta-type opioid receptor (P41143 whole entry): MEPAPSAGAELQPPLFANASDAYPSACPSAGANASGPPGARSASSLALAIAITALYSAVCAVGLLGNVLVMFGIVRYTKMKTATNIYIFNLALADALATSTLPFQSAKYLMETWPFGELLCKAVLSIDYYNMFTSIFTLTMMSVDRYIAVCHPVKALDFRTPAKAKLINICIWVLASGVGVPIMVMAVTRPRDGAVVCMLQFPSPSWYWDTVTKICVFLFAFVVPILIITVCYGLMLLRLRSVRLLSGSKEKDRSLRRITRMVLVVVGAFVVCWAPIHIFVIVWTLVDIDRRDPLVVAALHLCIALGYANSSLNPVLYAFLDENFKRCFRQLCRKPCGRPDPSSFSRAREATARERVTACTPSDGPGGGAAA
Chain of Melanocortin receptor 3 (P41968 whole entry): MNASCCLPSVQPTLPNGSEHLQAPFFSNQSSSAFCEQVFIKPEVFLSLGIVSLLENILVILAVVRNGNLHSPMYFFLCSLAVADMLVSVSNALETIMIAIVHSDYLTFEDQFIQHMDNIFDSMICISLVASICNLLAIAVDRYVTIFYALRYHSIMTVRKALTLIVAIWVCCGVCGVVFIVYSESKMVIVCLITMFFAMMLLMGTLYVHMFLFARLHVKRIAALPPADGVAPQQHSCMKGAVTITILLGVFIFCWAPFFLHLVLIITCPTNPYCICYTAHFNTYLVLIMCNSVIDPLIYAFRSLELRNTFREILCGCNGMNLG
Chain of Sodium-dependent dopamine transporter (Q01959 whole entry): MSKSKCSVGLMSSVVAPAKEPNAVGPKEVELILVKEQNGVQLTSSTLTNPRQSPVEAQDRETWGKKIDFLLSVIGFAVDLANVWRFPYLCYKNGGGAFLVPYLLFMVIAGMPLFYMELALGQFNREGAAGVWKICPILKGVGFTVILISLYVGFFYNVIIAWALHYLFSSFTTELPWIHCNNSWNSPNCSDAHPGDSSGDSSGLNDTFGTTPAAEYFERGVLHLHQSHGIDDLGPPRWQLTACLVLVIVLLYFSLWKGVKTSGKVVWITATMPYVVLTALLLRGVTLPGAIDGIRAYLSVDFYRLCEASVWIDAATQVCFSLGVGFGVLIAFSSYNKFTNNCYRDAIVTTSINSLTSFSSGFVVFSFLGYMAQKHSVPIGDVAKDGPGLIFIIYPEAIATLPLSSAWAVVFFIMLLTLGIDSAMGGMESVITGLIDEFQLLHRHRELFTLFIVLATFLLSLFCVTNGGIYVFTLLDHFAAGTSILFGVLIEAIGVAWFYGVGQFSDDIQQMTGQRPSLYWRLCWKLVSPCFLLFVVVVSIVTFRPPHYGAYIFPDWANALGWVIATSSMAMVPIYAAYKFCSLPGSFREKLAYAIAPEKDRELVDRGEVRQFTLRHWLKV
Chain of Adenosine receptor A2a (P29274 whole entry): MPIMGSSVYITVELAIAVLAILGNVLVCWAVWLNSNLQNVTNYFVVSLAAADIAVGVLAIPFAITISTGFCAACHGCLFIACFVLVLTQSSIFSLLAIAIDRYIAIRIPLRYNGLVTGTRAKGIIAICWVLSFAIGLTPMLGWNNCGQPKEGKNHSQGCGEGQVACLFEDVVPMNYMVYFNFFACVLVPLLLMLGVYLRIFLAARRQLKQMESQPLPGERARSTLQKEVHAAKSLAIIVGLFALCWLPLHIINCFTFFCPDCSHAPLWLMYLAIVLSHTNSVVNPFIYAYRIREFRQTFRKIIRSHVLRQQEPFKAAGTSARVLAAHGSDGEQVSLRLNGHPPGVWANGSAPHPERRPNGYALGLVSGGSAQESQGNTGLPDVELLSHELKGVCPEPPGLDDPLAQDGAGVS
Chain of 3',5'-cyclic-AMP phosphodiesterase 4D (Q08499 whole entry): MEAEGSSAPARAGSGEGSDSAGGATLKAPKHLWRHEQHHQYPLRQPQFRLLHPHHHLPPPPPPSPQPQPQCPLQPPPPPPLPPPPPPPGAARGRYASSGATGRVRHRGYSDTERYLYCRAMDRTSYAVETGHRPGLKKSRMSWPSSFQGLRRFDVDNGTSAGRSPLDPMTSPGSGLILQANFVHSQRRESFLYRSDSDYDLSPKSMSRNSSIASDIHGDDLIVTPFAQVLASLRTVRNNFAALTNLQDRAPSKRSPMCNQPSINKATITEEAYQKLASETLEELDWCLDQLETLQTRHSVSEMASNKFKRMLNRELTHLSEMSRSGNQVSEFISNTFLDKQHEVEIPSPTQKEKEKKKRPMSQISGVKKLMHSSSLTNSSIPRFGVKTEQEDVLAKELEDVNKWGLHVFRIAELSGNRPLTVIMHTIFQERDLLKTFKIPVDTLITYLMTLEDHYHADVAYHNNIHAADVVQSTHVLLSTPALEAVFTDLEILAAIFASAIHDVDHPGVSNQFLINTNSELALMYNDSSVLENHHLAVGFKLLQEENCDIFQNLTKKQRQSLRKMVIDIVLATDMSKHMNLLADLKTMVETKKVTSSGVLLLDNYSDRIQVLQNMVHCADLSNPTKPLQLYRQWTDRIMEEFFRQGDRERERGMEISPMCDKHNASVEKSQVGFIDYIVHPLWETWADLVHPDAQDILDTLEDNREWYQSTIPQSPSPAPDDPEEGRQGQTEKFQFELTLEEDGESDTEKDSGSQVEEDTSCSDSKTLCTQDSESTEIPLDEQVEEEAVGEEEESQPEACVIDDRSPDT
Chain of Gamma-aminobutyric acid receptor subunit alpha-1 (P62813 whole entry): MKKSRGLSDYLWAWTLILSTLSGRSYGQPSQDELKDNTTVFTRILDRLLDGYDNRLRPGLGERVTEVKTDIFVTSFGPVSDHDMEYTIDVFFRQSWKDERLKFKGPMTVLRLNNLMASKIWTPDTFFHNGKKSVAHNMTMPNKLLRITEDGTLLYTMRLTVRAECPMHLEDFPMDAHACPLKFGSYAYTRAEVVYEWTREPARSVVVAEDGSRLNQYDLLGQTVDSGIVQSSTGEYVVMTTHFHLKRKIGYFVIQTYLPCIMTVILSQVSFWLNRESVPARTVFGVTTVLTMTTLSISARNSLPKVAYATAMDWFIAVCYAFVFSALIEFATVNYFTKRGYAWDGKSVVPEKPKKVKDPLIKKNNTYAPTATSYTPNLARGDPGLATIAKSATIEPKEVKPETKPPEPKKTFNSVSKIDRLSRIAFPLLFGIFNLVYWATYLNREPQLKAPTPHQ
T3 sequence (P41595 whole entry): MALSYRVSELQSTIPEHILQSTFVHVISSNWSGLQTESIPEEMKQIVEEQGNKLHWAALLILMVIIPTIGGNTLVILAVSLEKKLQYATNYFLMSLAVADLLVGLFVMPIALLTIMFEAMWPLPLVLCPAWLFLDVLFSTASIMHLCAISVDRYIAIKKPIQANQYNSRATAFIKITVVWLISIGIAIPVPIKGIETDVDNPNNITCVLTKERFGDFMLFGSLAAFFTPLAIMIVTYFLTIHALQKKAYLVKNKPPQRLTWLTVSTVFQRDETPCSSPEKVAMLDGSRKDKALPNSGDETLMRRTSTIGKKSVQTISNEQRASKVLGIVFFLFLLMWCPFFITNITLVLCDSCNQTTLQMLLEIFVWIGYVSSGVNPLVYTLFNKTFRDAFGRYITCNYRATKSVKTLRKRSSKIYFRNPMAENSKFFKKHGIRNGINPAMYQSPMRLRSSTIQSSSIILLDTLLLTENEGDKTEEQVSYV
Chain of Cannabinoid receptor 1 (P21554 whole entry): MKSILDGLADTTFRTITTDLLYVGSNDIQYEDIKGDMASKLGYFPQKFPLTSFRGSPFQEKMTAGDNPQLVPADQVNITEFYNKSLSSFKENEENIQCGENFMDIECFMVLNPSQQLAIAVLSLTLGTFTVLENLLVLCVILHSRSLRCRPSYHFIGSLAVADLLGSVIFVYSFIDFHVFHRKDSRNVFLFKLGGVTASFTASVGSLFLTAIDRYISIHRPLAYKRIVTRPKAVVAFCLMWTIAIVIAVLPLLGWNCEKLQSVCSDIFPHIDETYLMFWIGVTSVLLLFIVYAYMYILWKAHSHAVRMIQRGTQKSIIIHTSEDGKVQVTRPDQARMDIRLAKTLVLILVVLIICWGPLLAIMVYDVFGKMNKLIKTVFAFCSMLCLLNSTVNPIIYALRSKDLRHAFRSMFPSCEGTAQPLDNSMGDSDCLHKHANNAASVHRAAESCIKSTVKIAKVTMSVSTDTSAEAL
Chain of Sodium-dependent noradrenaline transporter (P23975 whole entry): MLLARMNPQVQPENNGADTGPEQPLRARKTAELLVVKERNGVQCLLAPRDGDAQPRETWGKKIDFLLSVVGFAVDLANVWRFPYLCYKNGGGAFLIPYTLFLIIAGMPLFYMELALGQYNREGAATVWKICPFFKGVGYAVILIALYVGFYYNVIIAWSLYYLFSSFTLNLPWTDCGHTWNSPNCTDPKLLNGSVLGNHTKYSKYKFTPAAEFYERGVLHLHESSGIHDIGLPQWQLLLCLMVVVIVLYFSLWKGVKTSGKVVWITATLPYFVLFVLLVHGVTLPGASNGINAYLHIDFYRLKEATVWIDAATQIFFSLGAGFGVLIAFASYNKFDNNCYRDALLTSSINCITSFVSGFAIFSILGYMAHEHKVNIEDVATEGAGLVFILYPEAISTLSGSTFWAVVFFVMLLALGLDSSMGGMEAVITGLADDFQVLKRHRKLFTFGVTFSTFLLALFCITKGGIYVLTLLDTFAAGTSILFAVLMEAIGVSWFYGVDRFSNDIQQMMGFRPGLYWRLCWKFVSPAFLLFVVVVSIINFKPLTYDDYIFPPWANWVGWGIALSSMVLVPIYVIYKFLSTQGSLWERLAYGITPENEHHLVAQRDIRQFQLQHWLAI

SMILES: CN1CCN(C2=Nc3ccccc3Sc3ccc(Cl)cc32)CC1 [CLOTHIAPINE]
- AC50 [1]: 6.7 µM
- AC50 (Adenosine receptor A1): > 30 µM
- AC50 [2]: 1.3 µM
- AC50 [3]: > 30 µM
- AC50 [4]: 2100 nM
- AC50 [5]: 22 µM
- AC50 [6]: > 30 µM
- AC50 [7]: > 30 µM
- AC50 [8]: > 30 µM
- AC50 [9]: > 30 µM
- AC50 (Cannabinoid receptor 1): > 30 µM

SMILES: COc1cc2nc(N3CCN(C(=O)c4ccco4)CC3)nc(N)c2cc1OC [PRAZOSIN]
- AC50 [1]: > 10 µM
- AC50 (Adenosine receptor A1): > 30 µM
- AC50 [2]: 26 µM
- AC50 [3]: > 10 µM
- AC50 [10]: > 30 µM
- AC50 [11]: > 10 µM
- AC50 [5]: > 10 µM
- AC50 [12]: > 10 µM
- AC50 (Adenosine receptor A2a): > 30 µM
- AC50 [6]: > 10 µM
- AC50 [7]: > 10 µM
- AC50 [8]: > 30 µM
- AC50 [9]: > 10 µM
- AC50 (Cannabinoid receptor 1): > 30 µM
- AC50 (Melanocortin receptor 3): > 30 µM
- AC50 (Adenosine receptor A3): > 30 µM

SMILES: O=[N+]([O-])O[C@@H]1CO[C@H]2[C@@H]1OC[C@@H]2O [ISOSORBIDE MONONITRATE]
- AC50 [1]: > 10 µM
- AC50 (Adenosine receptor A1): > 30 µM
- AC50 [2]: > 10 µM
- AC50 [3]: > 10 µM
- AC50 [10]: > 30 µM
- AC50 [4]: > 10000 nM
- AC50 [11]: > 10 µM
- AC50 [5]: > 30 µM
- AC50 [12]: > 10 µM
- AC50 (Adenosine receptor A2a): > 30 µM
- AC50 [6]: > 10 µM
- AC50 [7]: > 10 µM
- AC50 [8]: > 30 µM
- AC50 [9]: > 10 µM
- AC50 (Melanocortin receptor 3): > 30 µM
- AC50 (Adenosine receptor A3): > 30 µM

SMILES: COc1ccccc1N1CCN(CC(O)COc2cccc3ccccc23)CC1 (stereo not given) [NAFTOPIDIL]
- AC50 [1]: > 30 µM
- AC50 (Adenosine receptor A1): > 30 µM
- AC50 [2]: 0.84 µM
- AC50 [3]: > 30 µM
- AC50 [4]: 200 nM
- AC50 [11]: 9.6 µM
- AC50 [5]: 12 µM
- AC50 [12]: 5.5 µM
- AC50 (Adenosine receptor A2a): > 30 µM
- AC50 [6]: > 30 µM
- AC50 [7]: > 30 µM
- AC50 [8]: > 30 µM
- AC50 [9]: > 30 µM
- AC50 (Cannabinoid receptor 1): > 30 µM
- AC50 (Melanocortin receptor 3): > 30 µM
- AC50 (Adenosine receptor A3): > 30 µM

SMILES: COC1=C(OC)C(=O)C(C/C=C(\C)CC/C=C(\C)CC/C=C(\C)CC/C=C(\C)CC/C=C(\C)CC/C=C(\C)CC/C=C(\C)CC/C=C(\C)CC/C=C(\C)CCC=C(C)C)=C(C)C1=O [UBIDECARENONE]
- AC50 [1]: > 30 µM
- AC50 (Adenosine receptor A1): > 30 µM
- AC50 [2]: > 30 µM
- AC50 [3]: > 30 µM
- AC50 [4]: > 30000 nM
- AC50 [5]: > 30 µM
- AC50 [6]: > 30 µM
- AC50 [7]: > 30 µM
- AC50 [8]: > 30 µM
- AC50 [9]: > 30 µM
- AC50 (Cannabinoid receptor 1): > 30 µM

SMILES: Cc1cc(C)c(NC(=O)CN(CC(=O)O)CC(=O)O)c(C)c1Br [MEBROFENIN]
- AC50 [1]: > 30 µM
- AC50 (Adenosine receptor A1): > 30 µM
- AC50 [2]: > 30 µM
- AC50 [3]: > 30 µM
- AC50 [4]: > 30000 nM
- AC50 [5]: > 30 µM
- AC50 [6]: > 30 µM
- AC50 [7]: > 30 µM
- AC50 [8]: > 30 µM
- AC50 [9]: > 30 µM
- AC50 (Cannabinoid receptor 1): > 30 µM

SMILES: CC[C@H]1CN2CCc3cc(OC)c(OC)cc3[C@@H]2C[C@@H]1C[C@H]1NCCc2cc(OC)c(OC)cc21 [EMETINE]
- AC50 [1]: > 30 µM
- AC50 (Adenosine receptor A1): > 30 µM
- AC50 [2]: > 30 µM
- AC50 [3]: > 30 µM
- AC50 [10]: > 30 µM
- AC50 [4]: 230 nM
- AC50 [11]: > 30 µM
- AC50 [5]: > 30 µM
- AC50 [12]: > 30 µM
- AC50 (Adenosine receptor A2a): > 30 µM
- AC50 [6]: > 30 µM
- AC50 [7]: > 30 µM
- AC50 [8]: > 30 µM
- AC50 [9]: > 30 µM
- AC50 (Cannabinoid receptor 1): > 30 µM
- AC50 (Melanocortin receptor 3): > 30 µM
- AC50 (Adenosine receptor A3): > 30 µM

SMILES: Cc1oc(=O)oc1CN1CCN(c2cc3c(cc2F)c(=O)c(C(=O)O)c2n3C(C)S2)CC1 (stereo not given) [PRULIFLOXACIN]
- AC50 [1]: > 30 µM
- AC50 (Adenosine receptor A1): > 30 µM
- AC50 [2]: > 30 µM
- AC50 [3]: > 30 µM
- AC50 [4]: > 30000 nM
- AC50 [5]: > 30 µM
- AC50 [6]: > 30 µM
- AC50 [7]: > 30 µM
- AC50 [8]: > 30 µM
- AC50 [9]: > 30 µM
- AC50 (Cannabinoid receptor 1): > 30 µM

SMILES: CCCCCNC(=N)N/N=C/c1c[nH]c2ccc(OC)cc12 [TEGASEROD]
- AC50 [1]: > 10 µM
- AC50 (Adenosine receptor A1): > 30 µM
- AC50 [2]: 0.343 µM
- AC50 [3]: > 30 µM
- AC50 [10]: 11.4 µM
- AC50 [4]: 771 nM
- AC50 [11]: 0.495 µM
- AC50 [5]: > 30 µM
- AC50 [12]: 6.78 µM
- AC50 (Adenosine receptor A2a): > 30 µM
- AC50 [6]: > 30 µM
- AC50 [7]: 16 µM
- AC50 [8]: 19 µM
- AC50 [9]: > 30 µM
- AC50 (Melanocortin receptor 3): 11.5 µM
- AC50 (Adenosine receptor A3): 15.3 µM
